Read-outs that look alike come from different tables or passages of the source.
Experiments:
hBS cells = assay: Cytotoxicity test in 96-well plates, 10 days (ATP content / Resazurin); conditions: for Ratios between the IC50 values measured using the Resazurin assay: hBS cells (reference = 1), day 10
hBS-MP cells [1] = assay: as above; conditions: for sensitivity of hBS cells and hBS-MP cells compared to hFF cells (comparison of IC50 values): hBS and hBS-MP cells versus hFF cells; for Ratios between the IC50 values measured using the Resazurin assay: hBS-MP cells relative to hBS cells, day 10
hFF cells = assay: as above; conditions: for Ratios between the IC50 values measured using the Resazurin assay: hFF cells relative to hBS cells, day 10
hBS-MP cells [2] = system: hBS-MP cells
Description: hBS cells were dissociated into small cell aggregates and seeded into 96-well plates (Nunc, Kamstrupvej, Denmark) in 100 μl Test medium containing Knock Out DMEM supplemented with 20% Foetal bovine Serum (FBS), 1% penicillin-streptomycin, 1% Glutamax, 0.5 mmol/l β-mercaptoethanol and 1% non-essential amino acids (all Invitrogen). hBS-MP cells and hFF cells were dissociated into single cells and seeded into 96-well plates in 100 μl test medium.
After 24 hours the cytotoxicity test was started by adding 100 μl toxicity solution to the test wells that had twice the concentration as the required end concentration (day 0).

sensitivity of hBS cells and progenitor cells compared to hFF (dose-response curve) (hBS-MP cells [2]) | sensitivity of hBS cells and hBS-MP cells compared to hFF cells (comparison of IC50 values) (hBS-MP cells [2]) | SMILES | toxic reaction (hBS cells; hBS cells, data not shown) | toxic reaction (hBS-MP cells [1]; hBS-MP cells, data not shown) | toxic reaction (hFF cells; hFF cells, data not shown) | Ratios between the IC50 values measured using the Resazurin assay (hBS cells) | sensitivity of hBS cells and hBS-MP cells compared to hFF cells (comparison of IC50 values) (hBS-MP cells [1]) | Ratios between the IC50 values measured using the Resazurin assay (hBS-MP cells [1]) | Ratios between the IC50 values measured using the Resazurin assay (hFF cells)
 |  | O=C1NS(=O)(=O)c2ccccc21.[Na] [saccharin, sodium saccharin] | no toxic reaction | no toxic reaction | no toxic reaction |  |  |  | 
higher sensitivity |  | CC1=C(/C=C/C(C)=C/C=C/C(C)=C\C(=O)O)C(C)(C)CCC1 [13CRA, 13-cis-retinoic acid] |  |  |  | 1 | much more sensitive | 4 | 10
 | much more sensitive | O=c1[nH]cc(F)c(=O)[nH]1 [5-FU, 5-fluoro-uracil] |  |  |  | 1 |  | 3 | 7
higher sensitivity |  | CC1=C(/C=C/C(C)=C/C=C/C(C)=C/C(=O)O)C(C)(C)CCC1 [ATRA, all-trans-retinoic acid] |  |  |  | 1 | much more sensitive | 1 | 2
